# Calls of active or inactive are those of the source. The rule behind the calls is not given here.
# Experiments:
# SH-SY5Y [1] = assay: Inhibition of ischemic cell death in human SH-SY5Y cells assessed as LDH release at 20 uM pretreated for 30 mins followed by addition of 500 uM H2O2 measured after 6 hrs; type: functional, cell-based
# SH-SY5Y [2] = assay: Inhibition of ischemic cell death in human SH-SY5Y cells assessed as cell viability pretreated for 30 mins followed by addition of 500 uM H2O2 measured after 6 hrs by MTS assay; type: functional, cell-based
# [3] = target: T1, FAS-associated factor 1 (Homo sapiens) (UniProt Q9UNN5); assay: Binding affinity to FLAG-tagged FAF1 (unknown origin) expressed in H2O2-treated human SH-SY5Y cells after 12 hrs by immunoblot analysis; type: cell-based
# T1 sequence (whole entry): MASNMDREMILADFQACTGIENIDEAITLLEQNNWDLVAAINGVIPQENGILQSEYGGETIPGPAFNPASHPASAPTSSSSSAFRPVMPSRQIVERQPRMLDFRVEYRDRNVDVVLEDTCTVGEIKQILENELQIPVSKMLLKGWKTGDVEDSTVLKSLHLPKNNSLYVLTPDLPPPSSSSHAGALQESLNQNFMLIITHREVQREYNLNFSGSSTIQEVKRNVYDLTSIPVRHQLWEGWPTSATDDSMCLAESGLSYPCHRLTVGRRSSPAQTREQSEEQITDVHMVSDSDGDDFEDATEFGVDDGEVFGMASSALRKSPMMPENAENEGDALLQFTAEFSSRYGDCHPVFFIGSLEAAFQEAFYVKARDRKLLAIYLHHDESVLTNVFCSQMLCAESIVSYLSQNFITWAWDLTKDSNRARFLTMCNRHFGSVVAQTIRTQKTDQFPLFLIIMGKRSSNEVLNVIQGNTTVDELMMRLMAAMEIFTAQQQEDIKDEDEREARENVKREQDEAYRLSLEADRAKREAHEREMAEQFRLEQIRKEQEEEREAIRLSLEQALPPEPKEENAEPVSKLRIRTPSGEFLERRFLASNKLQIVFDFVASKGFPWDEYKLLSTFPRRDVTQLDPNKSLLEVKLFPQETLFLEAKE
# [4] = target: T1, FAS-associated factor 1 (Homo sapiens); assay: Binding affinity to FLAG-tagged FAF1 (unknown origin) expressed in H2O2-treated human SH-SY5Y cells at 100 uM after 12 hrs by immunoblot analysis; type: cell-based
Compound,inhibition (SH-SY5Y [1]),inhibition (SH-SY5Y [2]),inhibition [3],inhibition [4]
O=C(CSc1ccc(Br)cc1)Nc1cn(CCc2ccccc2)nc1C(=O)O,Active,Active,–,–
CN(C)c1cccc2c(S(=O)(=O)NCCCCOc3ccc(CCn4cc(NC(=O)CSc5ccc(Br)cc5)c(C(=O)O)n4)cc3)cccc12,Active,Active,Active,–
O=C(CCCC[C@@H]1SC[C@@H]2NC(=O)N[C@@H]21)NCCCCOc1ccc(CCn2cc(NC(=O)CSc3ccc(Br)cc3)c(C(=O)O)n2)cc1,Active,Active,–,Active

# Source: ChEMBL document CHEMBL3758172, “Design and synthesis of fluorescent and biotin tagged probes for the study of molecular actions of FAF1 inhibitor” (Bioorg Med Chem Lett, 2016)
